Test results published in ChEMBL document CHEMBL4177539, “Discovery of N-((3R,4R)-4-Fluoro-1-(6-((3-methoxy-1-methyl-1H-pyrazol-4-yl)amino)-9-methyl-9H-purin-2-yl)pyrrolidine-3-yl)acrylamide (PF-06747775) through Structure-Based Drug Design: A High Affinity Irreversible Inhibitor Targeting Oncogenic EGFR Mutants with Selectivity over Wild-Type EGFR” (J Med Chem, 2017).
Activity calls are given as the source filed them. The calls are words filed in the database; no cut-off is given here.

Assays:
[1] = target: CYP1A2 (Homo sapiens, UniProt P05177); experiment: Inhibition of human CYP1A2 at 10 uM; assay type: ADME
[2] = Oral bioavailability in Wistar Han rat at 30 mg/kg administered as single dose; assay type: ADME, organism-based; conditions: in vivo
[3] = Fraction unbound in human plasma at 2 uM by LC-MS/MS based equilibrium dialysis method; assay type: ADME, cell-free
[4] = target: Cytoplasmic tyrosine-protein kinase BMX (Homo sapiens) (UniProt P51813); experiment: Inhibition of His-tagged full-length recombinant human BMX cytoplasmic domain expressed in Baculovirus expression system at 1 uM by FRET-based Z'-LYTE assay
[5] = target: CYP2C9 (Homo sapiens, UniProt P11712); experiment: Inhibition of human CYP2C9 at 10 uM; assay type: ADME
[6] = Fraction unbound in rat plasma at 2 uM by LC-MS/MS based equilibrium dialysis method; assay type: ADME, cell-free
[7] = target: Tyrosine-protein kinase Blk (Homo sapiens) (UniProt P51451); experiment: Inhibition of BLK (unknown origin) at 1 uM by cell based assay
[8] = tested on: Canis familiaris; experiment: Toxicity in dog assessed as electrocardiogram changes administered as single dose; assay type: organism-based, Canis lupus familiaris; conditions: in vivo
[9] = tested on: Canis familiaris; experiment: Toxicity in dog assessed as effect on blood pressure administered as repeated dosing; assay type: organism-based, Canis lupus familiaris; conditions: in vivo
[10] = tested on: Salmonella typhimurium; experiment: Mutagenicity in Salmonella typhimurium by Ames test; assay type: toxicity, organism-based; conditions: salmonella enterica subsp. enterica serovar typhimurium
[11] = Terminal half life in Beagle dog at 1 mg/kg, iv administered as single dose; assay type: ADME, organism-based, Canis lupus familiaris; conditions: in vivo, read-out: beta t1/2 (converted)
[12] = in vitro; conditions: dog, MDCK
[13] = tested on: Canis familiaris; experiment: Toxicity in dog assessed as effect on heart rate administered as repeated dosing; assay type: organism-based, Canis lupus familiaris; conditions: in vivo
[14] = Terminal half life in Nu/Nu mouse at 1 mg/kg, iv administered as single dose; assay type: ADME, organism-based; conditions: in vivo, read-out: beta t1/2 (converted)
[15] = Terminal half life in Wistar Han rat at 1 mg/kg, iv administered as single dose; assay type: ADME, organism-based; conditions: in vivo, read-out: beta t1/2 (converted)
[16] = Apparent intrinsic hepatic clearance in rat hepatocytes; assay type: ADME, cell-based, Hepatocyte; conditions: read-out: CLH(app)
[17] = target: Tyrosine-protein kinase BTK (Homo sapiens) (UniProt Q06187); experiment: Inhibition of His-tagged full-length recombinant human BTK cytoplasmic domain expressed in Baculovirus expression system at 1 uM by FRET-based Z'-LYTE assay
[18] = target: Tyrosine-protein kinase TXK (Homo sapiens) (UniProt P42681); experiment: Inhibition of GST-tagged full-length recombinant human TXK cytoplasmic domain expressed in Baculovirus expression system at 1 uM by FRET-based Z'-LYTE assay
[19] = Apparent intrinsic clearance in dog microsomes; assay type: ADME, Canis lupus familiaris, Microsome; conditions: read-out: CL(app)
[20] = Fraction unbound in mouse plasma at 2 uM by LC-MS/MS based equilibrium dialysis method; assay type: ADME, cell-free
[21] = Half life in Beagle dog blood at 1 uM by LC-MS/MS analysis; assay type: ADME, tissue-based, Canis lupus familiaris
[22] = target: Receptor tyrosine-protein kinase erbB-4 (Homo sapiens) (UniProt Q15303); experiment: Inhibition of N-terminal GST-tagged recombinant human ErbB4 cytoplasmic domain (708 to 993 residues) expressed in Baculovirus expression system at 1 uM by FRET-based Z'-LYTE assay
[23] = target: CYP2C8 (Homo sapiens, UniProt P10632); experiment: Inhibition of human CYP2C8 at 10 uM; assay type: ADME
[24] = target: Proto-oncogene tyrosine-protein kinase ROS (Homo sapiens) (UniProt P08922); experiment: Inhibition of GST-tagged recombinant human ROS cytoplasmic domain (1883 to 2347 residues) expressed in Baculovirus expression system at 1 uM by FRET-based Z'-LYTE assay
[25] = tested on: Rattus norvegicus; experiment: Toxicity in rat assessed as effect on central nervous system functions administered as repeated dosing; assay type: organism-based; conditions: in vivo
[26] = tested on: Rattus norvegicus; experiment: Toxicity in rat assessed as effect on pulmonary system functions administered as single dose; assay type: organism-based; conditions: in vivo
[27] = tested on: Canis familiaris; experiment: Toxicity in dog assessed as effect on blood pressure administered as single dose; assay type: organism-based, Canis lupus familiaris; conditions: in vivo
[28] = Apparent intrinsic clearance in rat microsomes; assay type: ADME, Microsome; conditions: read-out: CL(app)
[29] = tested on: Rattus norvegicus; experiment: Toxicity in rat assessed as effect on blood pressure administered as repeated dosing; assay type: organism-based; conditions: in vivo
[30] = tested on: Canis familiaris; experiment: Toxicity in dog assessed as body weight loss administered as repeated dosing for 91 days; assay type: organism-based, Canis lupus familiaris; conditions: in vivo, 2184 h
[31] = tested on: Canis familiaris; experiment: Toxicity in dog assessed as effect on pulmonary system functions administered as single dose; assay type: organism-based, Canis lupus familiaris; conditions: in vivo
[32] = Half life in CD-1 mouse blood at 1 uM by LC-MS/MS analysis; assay type: ADME, tissue-based
[33] = target: Tyrosine-protein kinase Fer (Homo sapiens) (UniProt P16591); experiment: Inhibition of GST-tagged recombinant human FER catalytic domain (541 to 822 residues) expressed in Baculovirus expression system at 1 uM by FRET-based Z'-LYTE assay
[34] = tested on: Rattus norvegicus; experiment: Toxicity in rat assessed as body weight loss administered as repeated dosing for 91 days; assay type: organism-based; conditions: in vivo, 2184 h
[35] = Volume of distribution at steady state in Wistar Han rat at 1 mg/kg, iv administered as single dose; assay type: ADME, organism-based; conditions: in vivo, read-out: Vdss
[36] = Fraction unbound in dog plasma at 2 uM by LC-MS/MS based equilibrium dialysis method; assay type: ADME, cell-free, Canis lupus familiaris
[37] = Drug metabolism in human liver microsomes assessed as demethylation; assay type: ADME, microsome
[38] = Apparent intrinsic hepatic clearance in dog hepatocytes; assay type: ADME, cell-based, Canis lupus familiaris, Hepatocyte; conditions: read-out: CLH(app)

Sequence of Cytoplasmic tyrosine-protein kinase BMX (Homo sapiens) (P51813 whole entry, the tested form may be a part): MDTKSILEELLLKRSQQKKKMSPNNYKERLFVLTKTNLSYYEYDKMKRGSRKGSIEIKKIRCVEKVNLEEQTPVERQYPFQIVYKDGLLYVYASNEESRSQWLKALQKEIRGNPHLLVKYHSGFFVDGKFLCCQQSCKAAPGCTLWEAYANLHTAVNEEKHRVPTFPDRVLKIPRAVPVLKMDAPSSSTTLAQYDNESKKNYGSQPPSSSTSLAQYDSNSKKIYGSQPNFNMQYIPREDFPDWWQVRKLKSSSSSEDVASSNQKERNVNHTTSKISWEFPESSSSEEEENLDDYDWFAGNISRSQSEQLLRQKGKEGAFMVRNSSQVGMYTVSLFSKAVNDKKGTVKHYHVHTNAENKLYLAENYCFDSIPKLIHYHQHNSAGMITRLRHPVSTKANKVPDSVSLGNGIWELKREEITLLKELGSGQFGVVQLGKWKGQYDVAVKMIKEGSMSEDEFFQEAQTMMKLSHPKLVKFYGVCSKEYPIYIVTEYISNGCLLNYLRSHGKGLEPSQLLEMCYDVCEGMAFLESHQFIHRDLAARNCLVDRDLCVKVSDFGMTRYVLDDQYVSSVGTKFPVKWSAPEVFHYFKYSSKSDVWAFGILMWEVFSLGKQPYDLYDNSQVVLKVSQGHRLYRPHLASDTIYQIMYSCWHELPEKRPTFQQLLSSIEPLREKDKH
Sequence of Tyrosine-protein kinase Blk (Homo sapiens) (P51451 2-505 limits assumed): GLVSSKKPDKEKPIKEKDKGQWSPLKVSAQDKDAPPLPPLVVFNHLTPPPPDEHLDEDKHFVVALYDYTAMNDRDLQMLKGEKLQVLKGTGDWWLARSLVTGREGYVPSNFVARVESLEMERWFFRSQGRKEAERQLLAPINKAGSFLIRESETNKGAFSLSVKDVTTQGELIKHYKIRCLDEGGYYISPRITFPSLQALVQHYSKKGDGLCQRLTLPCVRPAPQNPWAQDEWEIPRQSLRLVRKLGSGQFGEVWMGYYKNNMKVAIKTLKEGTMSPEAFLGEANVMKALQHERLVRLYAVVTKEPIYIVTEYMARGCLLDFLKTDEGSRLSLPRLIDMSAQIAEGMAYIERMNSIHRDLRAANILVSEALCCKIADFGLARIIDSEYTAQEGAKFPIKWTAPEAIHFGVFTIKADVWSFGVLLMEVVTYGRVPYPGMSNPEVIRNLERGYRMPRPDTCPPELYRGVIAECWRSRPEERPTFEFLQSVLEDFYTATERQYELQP
Sequence of Tyrosine-protein kinase Fer (Homo sapiens) (P16591 whole entry, looked up, the tested form may be a part): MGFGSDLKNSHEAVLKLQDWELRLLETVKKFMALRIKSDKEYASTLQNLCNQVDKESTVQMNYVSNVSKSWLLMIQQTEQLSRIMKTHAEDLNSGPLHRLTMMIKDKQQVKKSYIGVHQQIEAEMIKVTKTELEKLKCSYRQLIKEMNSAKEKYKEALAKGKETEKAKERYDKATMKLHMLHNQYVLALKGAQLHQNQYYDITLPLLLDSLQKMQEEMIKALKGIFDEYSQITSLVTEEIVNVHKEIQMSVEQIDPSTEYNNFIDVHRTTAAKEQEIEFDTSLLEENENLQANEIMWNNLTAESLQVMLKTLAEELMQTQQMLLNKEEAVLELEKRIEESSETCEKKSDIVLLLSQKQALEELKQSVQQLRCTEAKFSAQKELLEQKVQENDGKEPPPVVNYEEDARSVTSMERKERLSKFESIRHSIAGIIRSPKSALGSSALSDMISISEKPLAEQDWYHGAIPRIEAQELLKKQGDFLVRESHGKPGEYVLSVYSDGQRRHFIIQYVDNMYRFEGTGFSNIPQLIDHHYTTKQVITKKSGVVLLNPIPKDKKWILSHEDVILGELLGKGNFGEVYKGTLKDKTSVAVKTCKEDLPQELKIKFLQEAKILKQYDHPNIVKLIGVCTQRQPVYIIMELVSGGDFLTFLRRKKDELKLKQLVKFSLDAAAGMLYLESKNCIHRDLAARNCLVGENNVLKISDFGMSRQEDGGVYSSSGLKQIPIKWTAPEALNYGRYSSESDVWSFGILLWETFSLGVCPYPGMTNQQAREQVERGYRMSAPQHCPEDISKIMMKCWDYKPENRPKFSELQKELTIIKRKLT
Sequence of Receptor tyrosine-protein kinase erbB-4 (Homo sapiens) (Q15303 whole entry, the tested form may be a part): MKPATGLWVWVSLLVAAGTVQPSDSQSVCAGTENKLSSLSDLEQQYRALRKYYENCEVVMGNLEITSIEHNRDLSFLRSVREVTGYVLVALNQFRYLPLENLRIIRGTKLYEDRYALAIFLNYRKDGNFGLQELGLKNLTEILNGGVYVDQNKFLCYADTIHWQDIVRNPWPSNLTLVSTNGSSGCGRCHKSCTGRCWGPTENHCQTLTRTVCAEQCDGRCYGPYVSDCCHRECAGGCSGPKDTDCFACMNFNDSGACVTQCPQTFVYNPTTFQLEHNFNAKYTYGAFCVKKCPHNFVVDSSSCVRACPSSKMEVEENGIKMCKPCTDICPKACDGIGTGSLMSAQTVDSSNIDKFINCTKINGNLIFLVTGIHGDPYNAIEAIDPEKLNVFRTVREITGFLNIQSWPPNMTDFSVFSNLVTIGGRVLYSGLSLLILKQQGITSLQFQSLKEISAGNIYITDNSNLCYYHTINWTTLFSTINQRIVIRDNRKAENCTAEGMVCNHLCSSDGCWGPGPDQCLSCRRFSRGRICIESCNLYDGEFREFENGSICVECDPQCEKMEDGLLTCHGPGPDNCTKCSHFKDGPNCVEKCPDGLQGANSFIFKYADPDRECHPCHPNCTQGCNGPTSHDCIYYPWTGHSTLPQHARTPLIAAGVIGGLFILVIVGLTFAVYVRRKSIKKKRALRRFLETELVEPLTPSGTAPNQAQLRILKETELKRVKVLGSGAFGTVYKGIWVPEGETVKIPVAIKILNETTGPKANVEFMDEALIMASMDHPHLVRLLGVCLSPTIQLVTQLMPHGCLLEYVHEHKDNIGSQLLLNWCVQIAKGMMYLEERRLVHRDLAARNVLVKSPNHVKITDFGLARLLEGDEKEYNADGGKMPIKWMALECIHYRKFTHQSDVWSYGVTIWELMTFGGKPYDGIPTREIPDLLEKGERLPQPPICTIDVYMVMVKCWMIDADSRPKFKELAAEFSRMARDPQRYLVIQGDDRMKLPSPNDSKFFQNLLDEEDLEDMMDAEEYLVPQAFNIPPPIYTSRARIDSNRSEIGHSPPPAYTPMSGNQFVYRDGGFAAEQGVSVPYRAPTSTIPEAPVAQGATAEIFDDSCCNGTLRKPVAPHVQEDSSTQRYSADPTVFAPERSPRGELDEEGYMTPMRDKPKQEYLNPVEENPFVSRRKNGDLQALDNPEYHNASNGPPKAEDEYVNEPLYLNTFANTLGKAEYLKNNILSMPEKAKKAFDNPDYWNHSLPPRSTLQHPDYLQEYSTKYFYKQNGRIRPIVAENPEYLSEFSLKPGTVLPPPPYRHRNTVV
Sequence of CYP1A2 (P05177 whole entry): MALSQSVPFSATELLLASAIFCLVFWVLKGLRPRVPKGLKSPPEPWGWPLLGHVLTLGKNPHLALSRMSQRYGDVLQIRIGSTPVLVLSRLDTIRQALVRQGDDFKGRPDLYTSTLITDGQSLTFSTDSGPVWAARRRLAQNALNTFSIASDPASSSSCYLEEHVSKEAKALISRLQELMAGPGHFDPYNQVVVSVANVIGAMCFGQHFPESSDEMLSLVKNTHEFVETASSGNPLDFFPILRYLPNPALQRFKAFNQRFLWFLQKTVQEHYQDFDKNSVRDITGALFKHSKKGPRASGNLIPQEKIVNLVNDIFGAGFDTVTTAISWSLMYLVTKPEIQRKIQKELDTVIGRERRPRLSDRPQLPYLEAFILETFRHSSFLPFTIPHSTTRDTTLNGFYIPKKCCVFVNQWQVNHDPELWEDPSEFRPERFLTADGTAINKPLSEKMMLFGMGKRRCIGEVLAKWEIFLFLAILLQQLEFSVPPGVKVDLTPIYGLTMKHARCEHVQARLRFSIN
Sequence of Tyrosine-protein kinase BTK (Homo sapiens) (Q06187 whole entry, the tested form may be a part): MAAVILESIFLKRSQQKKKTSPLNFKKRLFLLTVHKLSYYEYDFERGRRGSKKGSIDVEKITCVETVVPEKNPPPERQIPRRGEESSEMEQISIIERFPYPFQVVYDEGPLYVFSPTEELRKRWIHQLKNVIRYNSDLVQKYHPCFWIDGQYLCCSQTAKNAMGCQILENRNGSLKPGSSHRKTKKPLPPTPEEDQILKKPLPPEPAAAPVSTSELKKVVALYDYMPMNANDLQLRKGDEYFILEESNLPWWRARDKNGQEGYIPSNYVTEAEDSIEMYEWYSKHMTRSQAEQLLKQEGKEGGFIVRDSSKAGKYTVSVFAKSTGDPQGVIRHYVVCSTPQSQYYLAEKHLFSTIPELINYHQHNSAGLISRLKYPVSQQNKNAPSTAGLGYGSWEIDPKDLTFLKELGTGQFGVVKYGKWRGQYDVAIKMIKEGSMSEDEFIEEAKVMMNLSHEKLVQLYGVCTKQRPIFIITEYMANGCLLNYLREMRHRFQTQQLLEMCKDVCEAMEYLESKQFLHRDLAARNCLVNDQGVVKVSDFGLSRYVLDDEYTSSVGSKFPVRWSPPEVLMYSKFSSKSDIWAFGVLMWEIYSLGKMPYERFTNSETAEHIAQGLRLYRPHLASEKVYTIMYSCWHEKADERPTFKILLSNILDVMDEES
Sequence of Tyrosine-protein kinase TXK (Homo sapiens) (P42681 whole entry, the tested form may be a part): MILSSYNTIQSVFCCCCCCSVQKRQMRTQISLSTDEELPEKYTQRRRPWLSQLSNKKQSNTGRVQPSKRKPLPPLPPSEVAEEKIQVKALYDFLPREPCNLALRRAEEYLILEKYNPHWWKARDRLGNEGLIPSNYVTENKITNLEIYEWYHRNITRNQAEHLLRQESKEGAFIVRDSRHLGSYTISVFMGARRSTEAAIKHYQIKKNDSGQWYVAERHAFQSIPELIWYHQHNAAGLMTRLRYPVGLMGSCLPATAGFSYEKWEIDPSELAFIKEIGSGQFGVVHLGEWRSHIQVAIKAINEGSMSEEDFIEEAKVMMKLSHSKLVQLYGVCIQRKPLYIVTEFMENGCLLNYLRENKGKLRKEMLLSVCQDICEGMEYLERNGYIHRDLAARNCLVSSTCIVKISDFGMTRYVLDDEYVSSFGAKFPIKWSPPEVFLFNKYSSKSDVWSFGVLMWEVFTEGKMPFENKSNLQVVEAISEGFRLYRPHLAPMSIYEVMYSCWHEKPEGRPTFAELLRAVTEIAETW

## C=CC(=O)N[C@@H]1CN(c2nc(Nc3cn(C)nc3OC)c3ncn(C)c3n2)C[C@H]1F [MAVELERTINIB]
[1]
  inhibition at 10 µM: < 30%
[2]
  bioavailability: 11%
[3]
  fraction unbound at 2 µM: 0.27
[4]
  inhibition: > 50%
[5]
  inhibition at 10 µM: < 30%
[6]
  fraction unbound at 2 µM: 0.22
[7]
  inhibition: Active
[8]
  Activity: Non-Toxic
[9]
  Activity: Non-Toxic
[10]
  Activity: Non-Toxic
[11]
  half-life: 1.3 h
[12]
  Papp: 9 ×10⁻⁶ cm/s
[13]
  Activity: Non-Toxic
[14]
  half-life: 0.56 h
[15]
  half-life: 0.28 h
[16]
  CLint scaled: 183 mL/min/kg
[17]
  inhibition: > 50%
[18]
  inhibition: > 50%
[19]
  CLint scaled: 3 mL/min/kg
[20]
  fraction unbound at 2 µM: 0.2 to 0.49
[21]
  half-life at 1 µM: 4.65 h
[22]
  inhibition: > 50%
[23]
  inhibition at 10 µM: < 30%
[24]
  inhibition: > 50%
[25]
  Activity: Non-Toxic
[26]
  Activity: Non-Toxic
[27]
  Activity: Non-Toxic
[28]
  CLint scaled: 141 mL/min/kg
[29]
  Activity: Non-Toxic
[30]
  Activity: Non-Toxic
[31]
  Activity: Non-Toxic
[32]
  half-life at 1 µM: 5.1 h
[33]
  inhibition: Active
[34]
  Activity: Non-Toxic
[35]
  Vd: 0.66 L/kg
[36]
  fraction unbound at 2 µM: 0.75
[37]
  Drug metabolism: Metabolite_Detected
[38]
  CLint scaled: 17 mL/min/kg
